# How the values were obtained:
# [1] = Partition coefficient between aqueous-phase culture medium and organic-phase tributyrin; assay type: physicochemical; conditions: aqueous phase: Carbon-free MR minimum medium, organic phase tributyrin
# Description: In order to solve the problem of toxicity of MANT, a two-phase aqueous organic culture system was used in the present invention (FIG. 5 in part a). Tributyrin was used as an organic solvent to extract MANT from the culture medium. Tributyrin extraction capacity was determined by measuring the partition coefficient between the aqueous medium of MANT and tributyrin, the solvent, and the result is shown in Table 2. Tributyrin is also capable of extracting ANT, but the amount of ANT extracted is very small compared to the amount of MANT and thus is negligible. […] The culture was carried out under the same conditions as in Example 1-2, except that, when IPTG was added, 10 mL of tributyrin was added therewith. MANT productivity was calculated on an aqueous phase basis (that is, Titer=Caq·Vaq+Corg·Vorg)/Vaq)).
# E. coli = experiment: MANT toxicity test on E. coli; assay type: cell-based
# Description: […]. The low resistance of E. coli to MANT could adversely affect E. coli mutations that produce MANT at high concentrations. Thus, E. coli was cultured in a modified culture system.
# [2] = tested on: Pseudomonas putida KT2440
SMILES,Partition coefficient ([1]; pH 5.0),Partition coefficient ([1]; pH 7.0),Partition coefficient ([1]; pH 9.0),MANT concentration E. coli can withstand (E. coli),final OD600 value (E. coli; E. coli exposed to various concentrations of MANT up to 1 g/L),final OD600 value relative to base strain not exposed to MANT (E. coli; exposed to 0.5 g/L of MANT),MANT concentration at which strain was not capable of growing ([2]; P. putida KT2440),"growth profile ([2]; P. putida KT2440, various MANT concentrations)",MANT concentration at which growth was completely inhibited (C. glutamicum ATCC 13032; C. glutamicum),"growth profile (C. glutamicum ATCC 13032; C. glutamicum ATCC 13032, various MANT concentrations)"
"Nc1ccccc1C(=O)O [Anthranilate, anthranilic acid]",4.7 ± 0.2,0.1 ± 0.0,Very low,–,–,–,–,–,–,–
"COC(=O)c1ccccc1N [MANT, Methyl anthranilate]",–,420.1 ± 7.6,–,up to 0.5 g/L,significantly reduced,about one third,1.0 g/L,concentration-dependent inhibition,2.0 g/L,concentration-dependent inhibition
